# According to patent US20170354148A1, “SAFENED HERBICIDAL COMPOSITIONS CONTAINING HALAUXIFEN AND METHODS OF USE THEREOF IN BRASSICA SPECIES” (Dow AgroSciences LLC, priority 2016, published 2017):
# Key:
# [1] = tested on: kale/Chinese kale (Brassica alboglabra, BRSAG); assay: Example 5 greenhouse trials, postemergence visual injury; settings: for % Visual Injury Obs / Visual Injury Obs: BRSAG
# [2] = tested on: rutabaga (Brassica napus var. napobrassica, BRSNA); assay: as above; settings: for % Visual Injury Obs / Visual Injury Obs: BRSNA
# [3] = tested on: winter oilseed rape (Brassica napus, BRSNW); assay: Example 4 field trials (Europe), postemergence crop safety, visual phytotoxicity; settings: for Mean % Visual Injury / Mean % Visual Deformation: alone or mixed
# [4] = tested on: spring oilseed rape (Brassica napus, BRSNS); assay: as above
# [5] = tested on: turnip or Polish canola (Brassica rapa, BRSRR); assay: Example 5 greenhouse trials, postemergence visual injury; settings: for % Visual Injury Obs / Visual Injury Obs: BRSRR
# [6] = tested on: winter oilseed rape (Brassica napus, BRSNW); assay: as above; settings: for % Visual Injury Obs / Visual Injury Obs: BRSNW
# [7] = tested on: Roundup Ready® canola (Brassica napus, RR-BRSNN); assay: as above; settings: for % Visual Injury Obs / Visual Injury Obs: RR-BRSNN
# [8] = 6DAA1, halauxifen-methyl 5, clopyralid-olamine 120 g ae/ha
# [9] = 7DAA1, halauxifen-methyl 5, clopyralid-olamine 120 g ae/ha
# [10] = 19DAA1, halauxifen-methyl 5, clopyralid-olamine 120 g ae/ha
# [11] = Trial 1, 27DAA1, halauxifen-methyl 5, clopyralid-olamine 120 g ae/ha
# [12] = Trial 2, 6DAA1, halauxifen-methyl 5, clopyralid-olamine 120 g ae/ha
# [13] = Trial 2, 7DAA1, halauxifen-methyl 5, clopyralid-olamine 120 g ae/ha
# [14] = halauxifen-methyl alone 2.5 g ai/ha
# [15] = halauxifen-methyl alone 5 g ai/ha
# [16] = halauxifen-methyl alone 10 g ai/ha
compound,measurement,setting,value
"O=C(O)c1nc(Cl)ccc1Cl [Clopyralid-olamine, 2-hydroxyethanaminium 3,6-dichloro-2-pyridinecarboxylate]",% Visual Injury Obs,"[1]; 50 g ai/ha alone, 20-22 d",0%
same,% Visual Injury Obs,"[1]; 100 g ai/ha alone, 20-22 d",0%
same,% Visual Injury Obs,"[1]; 200 g ai/ha alone, 20-22 d",0%
same,% Visual Injury Obs,"[2]; 50 g ai/ha alone, 20-22 d",0%
same,% Visual Injury Obs,"[2]; 100 g ai/ha alone, 20-22 d",0%
same,% Visual Injury Obs,"[2]; 200 g ai/ha alone, 20-22 d",0%
same,Mean % Visual Injury,[3]; [8],1%
same,Mean % Visual Injury,[3]; [9],1%
same,Mean % Visual Injury,[3]; [10],1%
same,Mean % Visual Growth Inhibition,"[3]; 85DAA1, 120 g ae/ha alone",3.8%
same,Mean % Visual Deformation,[3]; [11],23.8%
same,Mean % Visual Deformation,[3]; [12],1.0%
same,Mean % Visual Deformation,[3]; [13],1.0%
same,Mean % Visual Growth Inhibition,"[4]; Trial 1, 14DAA1, 125 g ae/ha alone",3.0%
same,Mean % Visual Growth Inhibition,"[4]; Trial 1, 14DAA1, 250 g ae/ha alone",3.0%
same,Mean % Visual Growth Inhibition,"[4]; Trial 2, 17DAA1, 100 g ae/ha alone",0.0%
same,Mean % Visual Growth Inhibition,"[4]; Trial 2, 17DAA1, 120 g ae/ha alone",2.3%
same,Mean % Visual Growth Inhibition,"[4]; Trial 2, 24DAA1, 100 g ae/ha alone",0.0%
same,Mean % Visual Growth Inhibition,"[4]; Trial 2, 24DAA1, 120 g ae/ha alone",2.0%
same,% Visual Injury Obs,"[5]; 50 g ai/ha alone, 20-22 d",0%
same,% Visual Injury Obs,"[5]; 100 g ai/ha alone, 20-22 d",0%
same,% Visual Injury Obs,"[5]; 200 g ai/ha alone, 20-22 d",0%
same,% Visual Injury Obs,"[6]; 50 g ai/ha alone, 20-22 d",0%
same,% Visual Injury Obs,"[6]; 100 g ai/ha alone, 20-22 d",0%
same,% Visual Injury Obs,"[6]; 200 g ai/ha alone, 20-22 d",0%
same,% Visual Injury Obs,"[7]; 50 g ai/ha alone, 20-22 d",0%
same,% Visual Injury Obs,"[7]; 100 g ai/ha alone, 20-22 d",0%
same,% Visual Injury Obs,"[7]; 200 g ai/ha alone, 20-22 d",0%
"COC(=O)c1nc(-c2ccc(Cl)c(OC)c2F)cc(N)c1Cl [Halauxifen-methyl, methyl 4-amino-3-chloro-6-(4-chloro-2-fluoro-3-methoxyphenyl)-2-pyridineccarboxylate]",% Visual Injury Obs,"[1]; 2.5 g ai/ha alone, 20-22 d",6%
same,% Visual Injury Obs,"[1]; 5 g ai/ha alone, 20-22 d",10%
same,% Visual Injury Obs,"[1]; 10 g ai/ha alone, 20-22 d",16%
same,% Visual Injury Obs,[1]; halauxifen-methyl 2.5 g ai/ha,6%
same,Visual Injury Obs,[1]; halauxifen-methyl 2.5 g ai/ha,6%
same,% Visual Injury Obs,[1]; halauxifen-methyl 5 g ai/ha,10%
same,Visual Injury Obs,[1]; halauxifen-methyl 5 g ai/ha,10%
same,% Visual Injury Obs,[1]; halauxifen-methyl 10 g ai/ha,16%
same,Visual Injury Obs,[1]; halauxifen-methyl 10 g ai/ha,16%
same,Percent (%) Visual Injury BRSAG Obs,[1]; [14],6%
same,Percent (%) Visual Injury BRSAG Obs,[1]; [15],10%
same,Percent (%) Visual Injury BRSAG Obs,[1]; [16],16%
same,% Visual Injury Obs,"[2]; 2.5 g ai/ha alone, 20-22 d",5%
same,% Visual Injury Obs,"[2]; 5 g ai/ha alone, 20-22 d",5%
same,% Visual Injury Obs,"[2]; 10 g ai/ha alone, 20-22 d",10%
same,% Visual Injury Obs,[2]; halauxifen-methyl 2.5 g ai/ha,5%
same,Visual Injury Obs,[2]; halauxifen-methyl 2.5 g ai/ha,5%
same,% Visual Injury Obs,[2]; halauxifen-methyl 5 g ai/ha,5%
same,Visual Injury Obs,[2]; halauxifen-methyl 5 g ai/ha,5%
same,% Visual Injury Obs,[2]; halauxifen-methyl 10 g ai/ha,10%
same,Visual Injury Obs,[2]; halauxifen-methyl 10 g ai/ha,10%
same,Percent (%) Visual Injury BRSNA Obs,[2]; [14],5%
same,Percent (%) Visual Injury BRSNA Obs,[2]; [15],5%
same,Percent (%) Visual Injury BRSNA Obs,[2]; [16],10%
same,Mean % Visual Injury,[3]; [8],1%
same,Mean % Visual Injury,[3]; [9],1%
same,Mean % Visual Injury,[3]; [10],1%
same,Mean % Visual Growth Inhibition,"[3]; 85DAA1, 5 g ae/ha alone",5.0%
same,Mean % Visual Deformation,[3]; [11],0%
same,Mean % Visual Deformation,[3]; [12],1%
same,Mean % Visual Deformation,[3]; [13],1%
same,Mean % Visual Growth Inhibition,"[4]; Trial 1, 14DAA1, 5 g ae/ha alone",3%
same,Mean % Visual Growth Inhibition,"[4]; Trial 1, 14DAA1, 6 g ae/ha alone",3%
same,Mean % Visual Growth Inhibition,"[4]; Trial 1, 14DAA1, 10 g ae/ha alone",3%
same,Mean % Visual Growth Inhibition,"[4]; Trial 1, 14DAA1, 12 g ae/ha alone",3%
same,Mean % Visual Growth Inhibition,"[4]; Trial 2, 17DAA1, 5 g ae/ha alone",10%
same,Mean % Visual Growth Inhibition,"[4]; Trial 2, 24DAA1, 5 g ae/ha alone",10%
same,% Visual Injury Obs,"[5]; 2.5 g ai/ha alone, 20-22 d",5%
same,% Visual Injury Obs,"[5]; 5 g ai/ha alone, 20-22 d",6%
same,% Visual Injury Obs,"[5]; 10 g ai/ha alone, 20-22 d",10%
same,% Visual Injury Obs,[5]; halauxifen-methyl 2.5 g ai/ha,5%
same,Visual Injury Obs,[5]; halauxifen-methyl 2.5 g ai/ha,5%
same,% Visual Injury Obs,[5]; halauxifen-methyl 5 g ai/ha,6%
same,Visual Injury Obs,[5]; halauxifen-methyl 5 g ai/ha,6%
same,% Visual Injury Obs,[5]; halauxifen-methyl 10 g ai/ha,10%
same,Visual Injury Obs,[5]; halauxifen-methyl 10 g ai/ha,10%
same,Percent (%) Visual Injury BRSRR Obs,[5]; [14],5%
same,Percent (%) Visual Injury BRSRR Obs,[5]; [15],6%
same,Percent (%) Visual Injury BRSRR Obs,[5]; [16],10%
same,% Visual Injury Obs,"[6]; 2.5 g ai/ha alone, 20-22 d",7%
same,% Visual Injury Obs,"[6]; 5 g ai/ha alone, 20-22 d",10%
same,% Visual Injury Obs,"[6]; 10 g ai/ha alone, 20-22 d",14%
same,% Visual Injury Obs,[6]; halauxifen-methyl 2.5 g ai/ha,7%
same,Visual Injury Obs,[6]; halauxifen-methyl 2.5 g ai/ha,7%
same,% Visual Injury Obs,[6]; halauxifen-methyl 5 g ai/ha,10%
same,Visual Injury Obs,[6]; halauxifen-methyl 5 g ai/ha,10%
same,% Visual Injury Obs,[6]; halauxifen-methyl 10 g ai/ha,14%
same,Visual Injury Obs,[6]; halauxifen-methyl 10 g ai/ha,14%
same,Percent (%) Visual Injury BRSNW Obs,[6]; [14],7%
same,Percent (%) Visual Injury BRSNW Obs,[6]; [15],10%
same,Percent (%) Visual Injury BRSNW Obs,[6]; [16],14%
same,% Visual Injury Obs,"[7]; 2.5 g ai/ha alone, 20-22 d",11%
same,% Visual Injury Obs,"[7]; 5 g ai/ha alone, 20-22 d",14%
same,% Visual Injury Obs,"[7]; 10 g ai/ha alone, 20-22 d",21%
same,% Visual Injury Obs,[7]; halauxifen-methyl 2.5 g ai/ha,11%
same,Visual Injury Obs,[7]; halauxifen-methyl 2.5 g ai/ha,11%
same,% Visual Injury Obs,[7]; halauxifen-methyl 5 g ai/ha,14%
same,Visual Injury Obs,[7]; halauxifen-methyl 5 g ai/ha,14%
same,% Visual Injury Obs,[7]; halauxifen-methyl 10 g ai/ha,21%
same,Visual Injury Obs,[7]; halauxifen-methyl 10 g ai/ha,21%
same,Percent (%) Visual Injury RR-BRSNN Obs,[7]; [14],11%
same,Percent (%) Visual Injury RR-BRSNN Obs,[7]; [15],14%
same,Percent (%) Visual Injury RR-BRSNN Obs,[7]; [16],21%
